Values after ≈ are worked out from the molar mass of the structure shown.
Tests used:
[1] = tested on: susceptible H37Rv MTB strain (ATCC 25177); assay: Resazurin Microplate Assay (REMA), whole-cell anti-tubercular activity against H37Rv; type: cell-based, Mycobacterium tuberculosis; settings: for MIC: Mycobacterium tuberculosis, read-out: MIC H37Rv; for MIC H37Rv: H37Rv ATCC 25177, NA: not active at the concentration range (0.2–64 μg/mL)

Molecule `CCOC(=O)c1cc(C(=O)c2ccc(Cl)cc2)n2ccccc12` [Compound 2b] has an MIC [1] of 8 mg/L (≈ 24.4 µM).

Molecule `CCOC(=O)c1cc(C(=O)c2ccc(Br)cc2)n2ccccc12` [Compound 2c] has an MIC [1] of 32 mg/L (≈ 86 µM).

Molecule `CCOC(=O)c1cc(C(=O)c2ccc([N+](=O)[O-])cc2)n2ccccc12` [Compound 2d] has an MIC [1] of 8 mg/L (≈ 23.6 µM).

With `CCOC(=O)c1cc(C(=O)c2ccc(C)cc2)n2ccccc12` [Compound 2e] the “MIC H37Rv” value [1] was “completely abolished the activity”.

For `CCOC(=O)c1cc(C(=O)c2ccc(C#N)cc2)n2ccccc12` [Compound 2f], the “MIC H37Rv” value [1] was “completely abolished the activity”.

Work on `CCOC(=O)c1c(C)c(C(=O)c2ccc(F)cc2)n2ccccc12` [Compound 3a] yielded an MIC [1] of 4 mg/L (≈ 12.3 µM).

`CCOC(=O)c1c(C)c(C(=O)c2ccc(Cl)cc2)n2ccccc12` [Compound 3b] gave an MIC [1] of 32 mg/L (≈ 93.6 µM).

`CCOC(=O)c1c(C)c(C(=O)c2ccc([N+](=O)[O-])cc2)n2ccccc12` [Compound 3d] showed an MIC [1] of 8 mg/L (≈ 22.7 µM).

With `CCOC(=O)c1c(C(=O)OCC)c2ccccn2c1C(=O)c1ccc(F)cc1` [Compound 4a, Diethyl-3-(4-fluorobenzoyl)indolizine-1,2-dicarboxylate] the MIC [1] was 8 mg/L (≈ 20.9 µM) and the melting point was 138 to 139 °C.

Work on `CCOC(=O)c1c(C(=O)OCC)c2ccccn2c1C(=O)c1ccc(Cl)cc1` [Compound 4b, Diethyl-3-(4-chlorobenzoyl)indolizine-1,2-dicarboxylate] yielded an MIC [1] of 8 mg/L (≈ 20 µM) and a melting point of 137 to 138 °C.

Molecule `CCOC(=O)c1c(C(=O)OCC)c2ccccn2c1C(=O)c1ccc([N+](=O)[O-])cc1` [Compound 4c, Diethyl-3-(4-nitrobenzoyl)indolizine-1,2-dicarboxylate] has an MIC [1] of 32 mg/L (≈ 78 µM) and a melting point of 111 to 112 °C.

For `NNC(=O)c1ccncc1` [Isoniazid, reference compound], the MIC [1] was under 0.2 mg/L.

For `CO[C@H]1/C=C/O[C@@]2(C)Oc3c(C)c(O)c4c(O)c(c(/C=N/N5CCN(C)CC5)c(O)c4c3C2=O)NC(=O)/C(C)=C\C=C\[C@H](C)[C@H](O)[C@@H](C)[C@@H](O)[C@@H](C)[C@H](OC(C)=O)[C@@H]1C` [Rifampicin, reference compound], the MIC [1] was under 1 mg/L.

Reference: paper PMC8259857, “Anti-tubercular activity and molecular docking studies of indolizine derivatives targeting mycobacterial InhA enzyme” (Journal of Enzyme Inhibition and Medicinal Chemistry, 2021)
